This is an account of results in PubChem BioAssay (NCI).

Among the test systems are CAKI-1 renal; EKVX NSCLC; HL-60(TB) leukemia; OVCAR-3 ovarian; RXF 393 renal; SK-MEL-28 melanoma; SW-620 colon; T-47D breast; U251 CNS; UACC-62 melanoma.
Common to all, as to test: DTP human tumour cell line panel, 48 h

“And” between values parts separate entries of the source, which are not always exact repeats. Identical values can stand only once.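 Cultured in 96-well plates, cells were exposed to test compound for 48 hours across five concentrations. Abbreviation: GI50, concentration required for 50% inhibition of growth. TGI marks complete inhibition of growth.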 Starred links: 1 amine or outer side, 2 acyl side, 3 side chain; linkers in the order of their positions; H or OH if unused. Positions of bridges follow the written chain, without caps; N, C: chain ends. Non-standard residues stand in square brackets, D forms with d. Residues, ends and D or L forms follow the SMILES beside them. Chains are numbered I, II in the order given. Actinocin(9to1) = Cc1c2oc3c(C)ccc(C(=O)[*:1])c3nc-2c(C(=O)[*:2])c(N)c1=O; NMeY = CN[CH](Cc1ccc(O)cc1)C(=O)O; Sar = CNCC(=O)O

The term TGI denotes the concentration at which net growth stops. The low end stands for greater sensitivity of the cells, the high end for lower sensitivity of the cells. As to `COC[C@@H](N=CC(C)(C)C)C(C)C`, the TGI with CAKI-1 renal, with EKVX NSCLC, in the experiment on HL-60(TB) leukemia, in the experiment on OVCAR-3 ovarian, in the experiment on RXF 393 renal and with SK-MEL-28 melanoma was more than 100 µM each time. Moreover, the TGI in the experiment with SW-620 colon, in the experiment on T-47D breast, in the experiment on U251 CNS and in the experiment with UACC-62 melanoma was more than 100 µM each time.
Turning to `BrC1=C(Br)C2(SCCS2)[C@H]2C[C@@H]1c1ccccc12`, the TGI with CAKI-1 renal, in the experiment on EKVX NSCLC, in the experiment with HL-60(TB) leukemia, with OVCAR-3 ovarian, in the experiment with RXF 393 renal and in the experiment with SK-MEL-28 melanoma was more than 100 µM each time. Also, the concentration for total growth inhibition (TGI) in the experiment with SW-620 colon, in the experiment with T-47D breast, in the experiment on U251 CNS and in the experiment on UACC-62 melanoma was more than 100 µM in each case.
On to `C/C=C/C(CC(O)(C(F)(F)F)C(F)(F)F)=N/NC(N)=S`, for which the TGI with CAKI-1 renal, in the experiment on EKVX NSCLC, in the experiment on HL-60(TB) leukemia, in the experiment on OVCAR-3 ovarian, with RXF 393 renal and in the experiment on SK-MEL-28 melanoma was more than 10 µM in each case. Also, the TGI with SW-620 colon, with T-47D breast, in the experiment with U251 CNS and in the experiment on UACC-62 melanoma was more than 10 µM in each case.
Regarding `CC(C)NC(=O)OCc1c(COC(=O)NC(C)C)c(-c2cc[n+](COC(=O)C3CC3)cc2)n2c1CCC2`, the TGI in the experiment on CAKI-1 renal, in the experiment with EKVX NSCLC, in the experiment with HL-60(TB) leukemia, with OVCAR-3 ovarian, with RXF 393 renal and with SK-MEL-28 melanoma was more than 100 µM in each case. Besides, the TGI with SW-620 colon, in the experiment on T-47D breast, with U251 CNS and in the experiment with UACC-62 melanoma was more than 100 µM throughout.
As usually defined, the GI50 is the concentration that inhibits growth by half. As for `Cc1c2oc3c(C)ccc(C(=O)NC4C(=O)NC(C(C)C)C(=O)N5CCCC5C(=O)N(C)CC(=O)N(C)C(Cc5ccc(O)cc5)C(=O)OC4C)c3nc-2c(C(=O)NC2C(=O)NC(C(C)C)C(=O)N3CCCC3C(=O)N(C)CC(=O)N(C)C(Cc3ccc(O)cc3)C(=O)OC2C)c(N)c1=O` (stereo not given) (I: TVP[Sar][NMeY] / II: TVP[Sar][NMeY]; ester I:1-I:C, II:1-II:C; linker I:N-II:N via Actinocin(9to1); configuration not given here), the TGI was more than 1 µM in the experiment with CAKI-1 renal; more than 1 µM in the experiment with EKVX NSCLC; 0.0947 µM with HL-60(TB) leukemia; 0.307 µM and 0.0871 µM in the experiment on RXF 393 renal; 0.205 µM and 0.0748 µM with SK-MEL-28 melanoma; more than 1 µM in the experiment on SW-620 colon. In addition, the TGI with T-47D breast is more than 0.334 µM; in the experiment on U251 CNS it was more than 1 µM; in the experiment on UACC-62 melanoma, 0.157 µM and 0.0213 µM. For the same molecule, the GI50 is 0.231 µM and 0.102 µM with EKVX NSCLC; 0.0176 µM and 0.00646 µM with OVCAR-3 ovarian; 0.0635 µM and 0.0229 µM in the experiment on RXF 393 renal; 0.0248 µM and 0.00701 µM in the experiment on SK-MEL-28 melanoma; 0.0103 µM and 0.00457 µM with T-47D breast; 0.0235 µM and 0.0057 µM with UACC-62 melanoma.
In the case of `O=c1[nH]nnc2c1sc1ncccc12`, the TGI in the experiment with CAKI-1 renal, in the experiment with EKVX NSCLC, with HL-60(TB) leukemia, in the experiment with OVCAR-3 ovarian, in the experiment on RXF 393 renal and with SK-MEL-28 melanoma was more than 100 µM each time. The TGI in the experiment with SW-620 colon, in the experiment with T-47D breast, in the experiment with U251 CNS and in the experiment with UACC-62 melanoma was more than 100 µM in each case.
Take `Cc1c(C)c2c(c(N)c1C#N)C(=O)N(NC(=O)c1ccccc1)C2=O`: the TGI with CAKI-1 renal, in the experiment with EKVX NSCLC, in the experiment on HL-60(TB) leukemia, with OVCAR-3 ovarian, in the experiment with RXF 393 renal and in the experiment with SK-MEL-28 melanoma was more than 100 µM in each case. For the same molecule, the TGI with SW-620 colon, with T-47D breast, in the experiment on U251 CNS and in the experiment with UACC-62 melanoma was more than 100 µM each time.
Turning to `COc1cccc(C(=O)Oc2ccc(OS(=O)(=O)c3ccc(C)cc3)cc2)c1C#N`, the TGI in the experiment with CAKI-1 renal, in the experiment on EKVX NSCLC, in the experiment on HL-60(TB) leukemia, in the experiment on OVCAR-3 ovarian, with RXF 393 renal and with SK-MEL-28 melanoma was more than 100 µM each time. Moreover, the TGI is more than 100 µM in the experiment on SW-620 colon, 71.7 µM with T-47D breast, more than 100 µM in the experiment with U251 CNS and more than 100 µM in the experiment on UACC-62 melanoma.
`N#C[C@H](c1ccccn1)c1nc2ccccc2nc1Cl`: the TGI in the experiment with CAKI-1 renal, with EKVX NSCLC, with HL-60(TB) leukemia, in the experiment on OVCAR-3 ovarian, in the experiment with RXF 393 renal and in the experiment with SK-MEL-28 melanoma was more than 100 µM each time. Further, the TGI in the experiment with SW-620 colon, with T-47D breast, in the experiment with U251 CNS and in the experiment with UACC-62 melanoma was more than 100 µM in each case.
Turning to `COC(=O)/C=C(\C(=O)OC)C1C(=O)Oc2c(C)c(=O)c3ccccc3n21` (stereo not given), the TGI in the experiment with CAKI-1 renal, with EKVX NSCLC, with HL-60(TB) leukemia, in the experiment on OVCAR-3 ovarian, with RXF 393 renal and with SK-MEL-28 melanoma was more than 100 µM each time. In addition, the TGI in the experiment with SW-620 colon, with T-47D breast, in the experiment with U251 CNS and with UACC-62 melanoma was more than 100 µM each time.
For the molecule `C=C(Cl)C(=CCl)CCC(Br)C(C)(C)Cl` (mixture of isomers), the TGI in the experiment on CAKI-1 renal, in the experiment with EKVX NSCLC, in the experiment on HL-60(TB) leukemia, in the experiment with OVCAR-3 ovarian, in the experiment with RXF 393 renal and with SK-MEL-28 melanoma was more than 10 µM in each case. In addition, the TGI in the experiment on SW-620 colon, in the experiment on T-47D breast, with U251 CNS and with UACC-62 melanoma was more than 10 µM each time.
As for `O=C1COc2cccnc2N1CCCCO`, the TGI in the experiment on CAKI-1 renal, in the experiment with EKVX NSCLC, in the experiment on HL-60(TB) leukemia, with OVCAR-3 ovarian, in the experiment with RXF 393 renal and in the experiment on SK-MEL-28 melanoma was more than 100 µM throughout. Moreover, the TGI with SW-620 colon, in the experiment with T-47D breast, in the experiment with U251 CNS and in the experiment with UACC-62 melanoma was more than 100 µM throughout.
